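Values below derive from 48-hour exposures of cells grown in 96-well plates, with endpoints linearly interpolated between the two concentrations bracketing the appropriate inhibition level. TGI: concentration producing complete growth inhibition.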
Key:
Test in all cases: DTP human tumour cell line panel, 48 h
[1] = system: SK-OV-3 ovarian
[2] = system: MOLT-4 leukemia
[3] = system: MCF7 breast
[4] = system: PC-3 prostate
[5] = system: HS 578T breast
[6] = system: COLO 205 colon
[7] = system: NCI-H522 lung
[8] = system: SNB-19 CNS
[9] = system: ACHN renal
[10] = system: HL-60(TB) leukemia

SMILES	TGI [1] [µM]	TGI [2] [µM]	TGI [3] [µM]	TGI [4] [µM]	TGI [5] [µM]	TGI [6] [µM]	TGI [7] [µM]	TGI [8] [µM]	TGI [9] [µM]	TGI [10] [µM]
O=C1CCC(=O)N1n1c(Cc2ccccc2)n[nH]c1=O	> 100	> 100	> 100	> 100	> 100	> 100	> 100	> 100	> 100	–
CC1=C(C)[C@@]2(C)O[C@@]2(C)O[C@@]2(C)O[C@@]12C	> 100	–	> 100	> 100	> 100	> 100	> 100	> 100	> 100	–
CC(=O)NC1=C(NCCC(C)C)C(=O)c2ccccc2C1=O	> 50	> 50	–	–	–	> 50	> 50	> 50	> 50	> 50
FC(F)(F)c1cc(Cl)cnc1N/N=C(/c1ccccc1)c1ccccn1	9.9	8.82	17	89.7	5.98	> 100	8.31	> 100	11.8	–
CC(C)/C(Cl)=N\OC(=O)Nc1ccc(S(N)(=O)=O)cc1	31.5	5.42	27.7	32.6	63.5	3.92	2.55	> 78.7	26.8	–
Cc1cccc(/C=N/NC(=S)Nc2ccccc2)n1	> 68.7	> 100	> 25.7	> 91.1	> 100	–	–	98.3	13.7	> 24.7
C[n+]1c2ccccc2c(/C=N\NS(=O)(=O)c2ccc(O)c(C(=O)O)c2)c2ccccc21	> 100	62	–	–	–	–	> 100	> 100	> 100	84.2
CCC1(O)CC2CC(=O)OC2C1O (centres undefined)	> 100	> 100	> 100	> 100	> 100	> 100	> 100	> 100	> 100	–
CNC(=O)C(C)C1CCC2(C)C=CC(=O)C(C)=C2C1O (centres undefined)	> 100	> 100	> 100	–	–	> 64.7	> 100	> 100	–	> 100
COc1ccc(CNc2nc(NCc3ccc(OC)c(OC)c3)nc(NC3CCCCC3)n2)cc1	> 100	> 100	> 100	> 100	–	21	5.74	> 100	> 100	> 100
COc1cc(/C=C2\S/C(=N/Nc3nc(-c4ccc(Br)cc4)cs3)NC2=O)cc(OC)c1OC	34.7	9.51	> 100	18.6	89.5	71.3	30.2	67.7	25.4	–
O=C1CCC23CC(C=CC=C12)n1c(=O)n(-c2ccccc2)c(=O)n13 (centres undefined)	> 100	> 100	32.3	–	–	> 100	> 100	> 100	–	> 80.5
CCC[C@@H](O)C[C@@H]1CCC[C@H](C[C@@H](O)CC)N1C	> 100	> 100	> 100	> 100	–	> 100	30.7	> 100	> 100	> 100
CC(=O)Nc1ccc(-c2nnc(SCC(=O)Nc3ccc([N+](=O)[O-])cc3)o2)cc1	35.9	> 100	–	–	–	27.3	20.7	–	28.7	> 100
Cc1cccc2c(=O)cc(-c3ccccc3)[nH]c12	–	> 100	–	–	–	51.5	–	> 100	> 100	> 100
CCOC(=O)Nn1c(C)nnc1-c1ccccc1	> 100	> 100	> 100	> 100	> 100	> 100	> 100	> 100	> 100	–
COc1ccc2c(=O)c(O)c(-c3ccc(OC)c(OC)c3)oc2c1	> 100	> 100	> 100	> 100	–	> 100	46	> 100	> 100	5.22
O=C(Cc1cccs1)N[C@@H]1C(=O)N2C(C(=O)OC(c3ccccc3)c3ccccc3)=C(CO)CS[C@H]12	> 100	> 100	> 100	> 100	–	> 100	> 100	–	> 100	> 100
CCCN=C1CCN(Cc2ccccc2)c2ccccc2N1	> 100	34.1	–	59.9	36.2	22.9	27.9	> 100	94.1	37.3

SMILES	TGI [1] [µM]	TGI [2] [µM]	TGI [3] [µM]	TGI [4] [µM]	TGI [5] [µM]	TGI [6] [µM]	TGI [7] [µM]	TGI [8] [µM]	TGI [9] [µM]	TGI [10] [µM]
O=C(O)c1cccc2c1/C(=N/Nc1ccccc1)CC2	> 100	> 100	> 100	> 100	> 100	–	> 100	–	> 100	–
O=c1[nH][nH]c(=O)n1Cc1ccccc1Cn1c(=O)[nH][nH]c1=O	> 100	> 100	–	> 100	> 100	> 100	> 100	> 100	> 100	> 100
O=C1c2ccccc2C2C1N2C(=O)C(F)(F)F (centres undefined)	> 100	> 100	–	–	–	> 100	> 100	> 100	> 100	91.5
O=C(NNC(=O)c1ccccc1SSc1ccccc1C(=O)NNC(=O)c1ccccc1S)c1ccccc1S	> 100	> 87	> 100	> 74.9	–	> 100	1.67	> 100	> 100	9.49
N.N.N.N.O=[N+]([O-])[O-].[Co+3].[N-]=[N+]=[N-].[N-]=[N+]=[N-]	> 100	> 100	–	–	–	> 100	> 100	> 100	> 100	> 100
CCOc1cc2c(cc1O)/C(=N\OC)C[C@@H]1[C@@H]2CC[C@]2(C)[C@@H](O)CC[C@@H]12	> 100	26.5	> 37.6	> 30.7	0.776	40.8	0.518	> 100	> 100	–
COc1cc([C@@H]2c3cc4c(cc3[C@@H](Nc3ccc([N+](=O)[O-])cc3C(=O)c3ccccc3)[C@H]3COC(=O)[C@H]23)OCO4)cc(OC)c1OC	> 100	> 100	> 100	> 100	> 100	–	> 51	> 100	> 100	–
CC(C)CCCCCCCCCCCCC(=O)NCC(=O)NC1C(C)OC(Nc2ncnc3c2ncn3C)C(O)C1O (centres undefined)	> 94.6	> 100	> 100	–	–	> 100	31.9	> 31	–	6.08
C[C@]12CC[C@H](O)CC1=CC[C@@H]1C2CC[C@]2(C)C(=O)N(N)C(=O)CC12 (some centres undefined)	> 100	> 100	–	–	–	> 100	> 100	> 100	> 100	> 100
COC(=O)c1cc2c(n1S(=O)(=O)c1ccc(C)cc1)C(=O)C(=O)c1[nH]cc(C(=O)OCc3ccccc3)c1-2	2.13	0.944	0.174	1.13	5.8	0.433	0.48	0.441	0.682	–
COc1cc([C@@H]2OCC3C(c4ccc5c(c4)OCO5)OCC32)cc(OC)c1OC (some centres undefined)	> 100	> 100	–	–	–	> 100	> 100	> 100	> 100	> 100
N#CN=C(N(Cc1ccccc1)Cc1ccccc1)N(Cc1ccccc1)Cc1ccccc1	> 100	> 100	–	–	–	> 100	> 100	> 100	> 100	83.8
CCC12C=CCN3CCC4(C(=C(C(=O)OC)[C@@H]1O)Nc1ccccc14)C32 (some centres undefined)	6.2	11.7	–	–	–	3.22	3.06	3.8	3.3	4.98
Cc1ccccc1-n1c(=O)c2ncn(CCCl)c2n(-c2ccccc2C)c1=S	> 100	> 100	> 100	> 100	–	> 100	> 100	–	> 100	> 100
CNS(=O)(=O)NNS(=O)(=O)c1ccc2ccccc2c1	> 100	> 100	–	–	–	> 100	> 100	> 100	> 100	> 100
CCOC(=O)C1=C(C)NC(=S)NC1c1ccccc1 (centres undefined)	> 100	> 100	–	–	–	> 60.7	> 100	> 22.5	> 100	> 100
Nc1cccc2cc(Cl)cnc12	> 100	> 100	–	> 100	> 100	> 100	> 100	> 100	> 100	> 100
[N-]=[N+]=Nc1cc(=O)oc2ccccc12	> 100	> 100	–	–	–	> 100	> 100	–	> 100	> 100

From PubChem BioAssay (NCI)
